Measurements as given in patent US20240217969A1, “SUBSTITUTED PYRROLE CARBOXAMIDES, PROCESS FOR THEIR PREPARATION AND THEIR USE AS KINASE INHIBITORS” (priority 2021, published 2024).

Columns and labels:
Cdc7 = Cdc7 (Homo sapiens, UniProt O00311); assay: Cdc7 biochemical assay, ADPGlo assay format
Method: The biochemical activity of compounds was determined by incubation with specific enzymes and substrate, followed by quantification of the ADP product. Compounds were 4-fold serially diluted from 10 to 0.0006 uM; in the case of the pre-incubation step, the enzyme is added to the inhibitor solution and the mixture is left to incubate for 30 minutes at room temperature (r.t.). The reaction started with the addition of the substrate and the ATP, when the enzyme was already present in the preincubation step, or substrate, ATP and enzyme when the preincubation step was not present. The concentrations of ATP, substrate and reaction buffer are described above. The assays were run in a robotized format on 384-well plates. […] At the end of the incubation time, an equal volume of ADPGlo Reagent 1 (Promega) was added to stop the reaction and to remove all unreacted ATP. After 60 minutes, an equal volume of ADPGlo Reagent 2 (Promega) was added to convert ADP in ATP and then ATP in light by luciferase reaction.
y=bottom+(top−bottom)/(1+10^((log IC50−x)*slope))
where x is the logarithm of the inhibitor concentration, y is the response; y starts at bottom and goes to top with a sigmoid shape.

[1] = biological target: T1, aldehyde oxidases (human liver cytosol) (Homo sapiens, UniProt Q06278); assay type: in vitro ADME; conditions: human liver cytosol 1 mg/mL, 1 μM compound; for HLC % remaining (1 h incub.): 60 min incubation; for HLC % remaining (1 h incub.) / HLC T½ min: pH 7.4, 37° C.; for IntCl (Intrinsic Clearance): half-life approach
T1 construct: added to human liver cytosol (1 mg/mL protein content); from tissue; host or cells: human liver cytosol
T1 sequence (Q06278 whole entry): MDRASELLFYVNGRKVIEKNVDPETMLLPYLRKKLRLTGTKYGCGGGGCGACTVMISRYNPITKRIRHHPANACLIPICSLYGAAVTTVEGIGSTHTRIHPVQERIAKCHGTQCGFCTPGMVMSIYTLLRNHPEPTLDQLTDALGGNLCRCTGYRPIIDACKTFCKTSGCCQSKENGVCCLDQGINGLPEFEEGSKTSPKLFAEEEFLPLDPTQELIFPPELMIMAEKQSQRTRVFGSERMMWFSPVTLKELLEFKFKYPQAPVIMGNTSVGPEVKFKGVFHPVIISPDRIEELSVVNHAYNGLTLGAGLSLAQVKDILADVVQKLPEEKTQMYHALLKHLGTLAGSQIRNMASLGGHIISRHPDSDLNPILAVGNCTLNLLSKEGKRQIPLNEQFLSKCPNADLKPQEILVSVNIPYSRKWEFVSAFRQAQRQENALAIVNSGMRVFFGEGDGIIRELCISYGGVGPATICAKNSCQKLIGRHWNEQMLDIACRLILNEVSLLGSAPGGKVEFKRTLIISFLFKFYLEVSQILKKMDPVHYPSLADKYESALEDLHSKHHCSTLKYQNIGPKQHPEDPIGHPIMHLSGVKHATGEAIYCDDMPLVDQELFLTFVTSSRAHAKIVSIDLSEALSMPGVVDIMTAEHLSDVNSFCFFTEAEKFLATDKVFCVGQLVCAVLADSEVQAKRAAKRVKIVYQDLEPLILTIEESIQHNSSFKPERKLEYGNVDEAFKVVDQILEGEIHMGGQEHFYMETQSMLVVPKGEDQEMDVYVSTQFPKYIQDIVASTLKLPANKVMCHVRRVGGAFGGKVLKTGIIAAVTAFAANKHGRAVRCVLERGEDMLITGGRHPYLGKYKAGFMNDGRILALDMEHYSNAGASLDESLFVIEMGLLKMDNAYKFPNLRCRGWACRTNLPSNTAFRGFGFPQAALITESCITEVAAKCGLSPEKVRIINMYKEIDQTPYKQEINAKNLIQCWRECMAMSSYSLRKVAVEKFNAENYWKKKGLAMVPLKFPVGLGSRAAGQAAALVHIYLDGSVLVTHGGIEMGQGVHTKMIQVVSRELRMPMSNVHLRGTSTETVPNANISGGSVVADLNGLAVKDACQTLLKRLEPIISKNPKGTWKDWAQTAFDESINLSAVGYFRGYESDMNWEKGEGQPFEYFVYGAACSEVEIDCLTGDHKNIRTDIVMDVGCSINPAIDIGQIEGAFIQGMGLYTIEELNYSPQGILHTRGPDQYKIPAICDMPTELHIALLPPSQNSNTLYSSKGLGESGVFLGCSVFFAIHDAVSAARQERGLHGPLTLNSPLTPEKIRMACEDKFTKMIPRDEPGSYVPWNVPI
Method: The aldehyde oxidases involvement in the metabolism of the test item was determined by comparison of the intrinsic clearance values in the presence and absence of aldehyde oxidases inhibitor hydralazine hydrochloride. The purpose of the study was to evaluate the in-vitro intrinsic clearance, the metabolic stability towards aldehyde oxidases (AO) activity and the metabolism of the test item in human liver cytosol. The intrinsic clearance was determined using the half-life approach, by measuring the substrate disappearance along 60 minutes incubation with human liver cytosol. Incubations were performed at the concentration of 1 μM. […] HPLC-MS/MS was used for the detection of the compound left over during the incubation. For intrinsic clearance determination samples were analyzed by high performance liquid chromatography (HPLC) on-line with mass spectrometry (MS) equipment. For the determination of aldehyde oxidases activity (i.e. positive control) of cytosol, phthalazine was incubated with human liver cytosol in presence and absence of the aldehyde oxidases inhibitor. On the day of the incubation, the compound was dissolved in DMSO at the concentration of 10 mM. Aliquots of this solution were added to the test system to a final concentration of […]. The percentage of DMSO in the final incubates was […]. Aliquots of the test item were added to human liver cytosol (1 mg/mL protein content) in Dulbecco's buffer, pH 7.4 at 37° C., to reach final concentration of 1 μM. Incubations were performed in a 48-well plate, under shaking. At 0, 5, 10, 20, 30 and 60 minutes incubation, 50 μL aliquots of the incubate were sampled, poured in 80 μL of ice-cold acetonitrile and 20 μL of 1 μM warfarin in acetonitrile (injection control) and centrifuged at 2500 rpm for 20 minutes. The supernatant was immediately analysed by LC-MS/MS.
The test item was incubated in parallel, in duplicate, at the concentration of 1 μM in Dulbecco's buffer, pH 7.4 for 60 min at 37° C. in the presence of 10 μM hydralazine hydrochloride (aldehyde oxidases inhibitor).
The chemical stability of the test item was checked in parallel by incubating the test item in single at the concentration of 1 μM in Dulbecco's buffer, pH 7.4 for 60 min at 37° C. (negative control).
The intrinsic clearance (CLint) was calculated using the half-life approach. Half-life and CLint were determined from the concentration (area counts) remaining at the different sampling points using the LC-MS/MS method. By plotting the natural logarithmic area of the compound remaining against the time, the slope was calculated by linear regression analysis and converted into the half-life (t½) and CLint expressed as μL/min/mg protein according to the following formulae: […]

Sequence of Cdc7 (O00311 whole entry): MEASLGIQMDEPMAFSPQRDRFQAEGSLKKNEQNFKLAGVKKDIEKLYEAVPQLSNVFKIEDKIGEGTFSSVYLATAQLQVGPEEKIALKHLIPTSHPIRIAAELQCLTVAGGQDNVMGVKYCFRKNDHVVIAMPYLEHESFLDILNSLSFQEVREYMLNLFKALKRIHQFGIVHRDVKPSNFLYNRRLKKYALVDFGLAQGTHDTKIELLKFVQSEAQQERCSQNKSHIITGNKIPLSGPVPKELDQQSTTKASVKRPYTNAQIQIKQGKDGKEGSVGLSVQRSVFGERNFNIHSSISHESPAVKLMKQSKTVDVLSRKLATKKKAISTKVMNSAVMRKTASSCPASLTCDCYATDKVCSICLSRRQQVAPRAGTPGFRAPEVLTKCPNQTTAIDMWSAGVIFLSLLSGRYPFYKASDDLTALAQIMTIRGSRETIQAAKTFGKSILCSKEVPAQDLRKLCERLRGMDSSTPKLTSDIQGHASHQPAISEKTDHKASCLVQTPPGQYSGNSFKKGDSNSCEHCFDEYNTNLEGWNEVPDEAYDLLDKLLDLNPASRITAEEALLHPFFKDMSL
Sequence of Cdc7 (Q9UBU7 whole entry partner): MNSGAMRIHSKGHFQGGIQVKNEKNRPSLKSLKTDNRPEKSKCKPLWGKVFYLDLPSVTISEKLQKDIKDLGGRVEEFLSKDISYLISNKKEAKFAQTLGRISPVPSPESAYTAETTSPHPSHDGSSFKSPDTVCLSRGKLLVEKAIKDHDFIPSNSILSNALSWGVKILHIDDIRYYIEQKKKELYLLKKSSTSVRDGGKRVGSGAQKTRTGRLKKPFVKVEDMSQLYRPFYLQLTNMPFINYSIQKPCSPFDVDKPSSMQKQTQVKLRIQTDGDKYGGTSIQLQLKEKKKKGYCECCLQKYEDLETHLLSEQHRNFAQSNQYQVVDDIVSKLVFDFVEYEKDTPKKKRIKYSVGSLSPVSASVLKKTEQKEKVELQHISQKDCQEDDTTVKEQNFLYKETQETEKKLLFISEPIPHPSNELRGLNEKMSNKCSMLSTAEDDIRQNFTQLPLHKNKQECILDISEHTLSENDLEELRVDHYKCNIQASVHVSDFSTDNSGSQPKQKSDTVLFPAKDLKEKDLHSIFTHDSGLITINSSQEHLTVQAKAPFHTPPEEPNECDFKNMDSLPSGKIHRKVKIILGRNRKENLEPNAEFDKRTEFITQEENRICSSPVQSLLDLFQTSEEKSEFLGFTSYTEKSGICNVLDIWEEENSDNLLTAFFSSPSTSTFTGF

NC(=O)c1cc(-c2ccnc3[nH]ccc23)[nH]c1-c1cccc(Cl)c1F [comp 1, 2-(3-chloro-2-fluorophenyl)-5-(1H-pyrrolo[2,3-b]pyridin-4-yl)-1H-pyrrole-3-carboxamide]
IC50 (Cdc7): 4 nM | HLC % remaining (1 h incub.) [1]: 100% | IntCl (Intrinsic Clearance) [1]: 2.9 μL/min/mg protein | HLC T½ min [1]: 3.98 h

NC(=O)c1cc(-c2ccnc3[nH]ccc23)[nH]c1-c1ccc(Cl)cc1F [comp 2, 2-(4-chloro-2-fluorophenyl)-5-(1H-pyrrolo[2,3-b]pyridin-4-yl)-1H-pyrrole-3-carboxamide]
IC50 (Cdc7): 3 nM | HLC % remaining (1 h incub.) [1]: 98% | IntCl (Intrinsic Clearance) [1]: 2.9 μL/min/mg protein | HLC T½ min [1]: 3.98 h

NC(=O)c1cc(-c2ccnc3[nH]ccc23)[nH]c1-c1ccc(F)cc1Cl [comp 3, 2-(2-chloro-4-fluorophenyl)-5-(1H-pyrrolo[2,3-b]pyridin-4-yl)-1H-pyrrole-3-carboxamide]
IC50 (Cdc7): 1 nM | HLC % remaining (1 h incub.) [1]: 97% | IntCl (Intrinsic Clearance) [1]: 2.9 μL/min/mg protein | HLC T½ min [1]: 3.98 h

NC(=O)c1cc(-c2ccnc3[nH]ccc23)[nH]c1-c1ccc(F)cc1F [comp 4, 2-(2,4-difluorophenyl)-5-(1H-pyrrolo[2,3-b]pyridin-4-yl)-1H-pyrrole-3-carboxamide]
IC50 (Cdc7): 4 nM | HLC % remaining (1 h incub.) [1]: 100% | IntCl (Intrinsic Clearance) [1]: 2.9 μL/min/mg protein | HLC T½ min [1]: 3.98 h

NC(=O)c1cc(-c2ccnc3[nH]ccc23)[nH]c1-c1ccc(C(F)(F)F)cc1Cl [comp 5, 2-[2-chloro-4-(trifluoromethyl)phenyl]-5-(1H-pyrrolo[2,3-b]pyridin-4-yl)-1H-pyrrole-3-carboxamide]
IC50 (Cdc7): 1 nM | HLC % remaining (1 h incub.) [1]: 100% | IntCl (Intrinsic Clearance) [1]: 2.9 μL/min/mg protein | HLC T½ min [1]: 3.98 h

NC(=O)c1cc(-c2ccnc3[nH]ccc23)[nH]c1-c1cccc(F)c1F [comp 6, 2-(2,3-difluorophenyl)-5-(1H-pyrrolo[2,3-b]pyridin-4-yl)-1H-pyrrole-3-carboxamide]
IC50 (Cdc7): 5 nM | HLC % remaining (1 h incub.) [1]: 100% | IntCl (Intrinsic Clearance) [1]: 2.9 μL/min/mg protein | HLC T½ min [1]: 3.98 h

NC(=O)c1cc(-c2ccnc3[nH]ccc23)[nH]c1-c1cccc(Cl)c1Cl [comp 7, 2-(2,3-dichlorophenyl)-5-(1H-pyrrolo[2,3-b]pyridin-4-yl)-1H-pyrrole-3-carboxamide]
IC50 (Cdc7): 1 nM | HLC % remaining (1 h incub.) [1]: 95% | IntCl (Intrinsic Clearance) [1]: 2.9 μL/min/mg protein | HLC T½ min [1]: 3.98 h

Cc1ccc(-c2[nH]c(-c3ccnc4[nH]ccc34)cc2C(N)=O)c(C(F)(F)F)c1 [comp 8, 2-[4-methyl-2-(trifluoromethyl)phenyl]-5-(1H-pyrrolo[2,3-b]pyridin-4-yl)-1H-pyrrole-3-carboxamide]
IC50 (Cdc7): 3 nM | HLC % remaining (1 h incub.) [1]: 85% | IntCl (Intrinsic Clearance) [1]: 2.9 μL/min/mg protein | HLC T½ min [1]: 3.98 h

Cc1ccc(-c2[nH]c(-c3ccnc4[nH]ccc34)cc2C(N)=O)c(Cl)c1 [comp 9, 2-(2-chloro-4-methylphenyl)-5-(1H-pyrrolo[2,3-b]pyridin-4-yl)-1H-pyrrole-3-carboxamide]
IC50 (Cdc7): 1 nM | HLC % remaining (1 h incub.) [1]: 100% | IntCl (Intrinsic Clearance) [1]: 2.9 μL/min/mg protein | HLC T½ min [1]: 3.98 h

Cc1ccc(-c2[nH]c(-c3ccnc4[nH]ccc34)cc2C(N)=O)c(F)c1F [comp 10, 2-(2,3-difluoro-4-methylphenyl)-5-(1H-pyrrolo[2,3-b]pyridin-4-yl)-1H-pyrrole-3-carboxamide]
IC50 (Cdc7): 3 nM | HLC % remaining (1 h incub.) [1]: 95% | IntCl (Intrinsic Clearance) [1]: 2.9 μL/min/mg protein | HLC T½ min [1]: 3.98 h

Cc1cc(C(F)(F)F)ccc1-c1[nH]c(-c2ccnc3[nH]ccc23)cc1C(N)=O [comp 11, 2-[2-methyl-4-(trifluoromethyl)phenyl]-5-(1H-pyrrolo[2,3-b]pyridin-4-yl)-1H-pyrrole-3-carboxamide]
IC50 (Cdc7): 7 nM | HLC % remaining (1 h incub.) [1]: 100% | IntCl (Intrinsic Clearance) [1]: 2.9 μL/min/mg protein | HLC T½ min [1]: 3.98 h

COc1cccc(-c2[nH]c(-c3ccnc4[nH]ccc34)cc2C(N)=O)c1F [comp 12, 2-(2-fluoro-3-methoxyphenyl)-5-(1H-pyrrolo[2,3-b]pyridin-4-yl)-1H-pyrrole-3-carboxamide]
IC50 (Cdc7): 4 nM | HLC % remaining (1 h incub.) [1]: 97% | IntCl (Intrinsic Clearance) [1]: 2.9 μL/min/mg protein | HLC T½ min [1]: 3.98 h

NC(=O)c1cc(-c2ccnc3[nH]ccc23)[nH]c1-c1cccc(F)c1Cl [comp 13, 2-(2-chloro-3-fluorophenyl)-5-(1H-pyrrolo[2,3-b]pyridin-4-yl)-1H-pyrrole-3-carboxamide]
IC50 (Cdc7): 1 nM | HLC % remaining (1 h incub.) [1]: 100% | IntCl (Intrinsic Clearance) [1]: 2.9 μL/min/mg protein | HLC T½ min [1]: 3.98 h

Cc1cccc(-c2[nH]c(-c3ccnc4[nH]ccc34)cc2C(N)=O)c1F [comp 14, 2-(2-fluoro-3-methylphenyl)-5-(1H-pyrrolo[2,3-b]pyridin-4-yl)-1H-pyrrole-3-carboxamide]
IC50 (Cdc7): 10 nM | HLC % remaining (1 h incub.) [1]: 100% | IntCl (Intrinsic Clearance) [1]: 2.9 μL/min/mg protein | HLC T½ min [1]: 3.98 h

Cc1c(-c2[nH]c(-c3ccnc4[nH]ccc34)cc2C(N)=O)cccc1C(F)(F)F [comp 15, 2-[2-methyl-3-(trifluoromethyl)phenyl]-5-(1H-pyrrolo[2,3-b]pyridin-4-yl)-1H-pyrrole-3-carboxamide]
IC50 (Cdc7): 6 nM | HLC % remaining (1 h incub.) [1]: 100% | IntCl (Intrinsic Clearance) [1]: 2.9 μL/min/mg protein | HLC T½ min [1]: 3.98 h

NC(=O)c1cc(-c2cc(N)ncn2)[nH]c1-c1ccc(Cl)cc1Cl [compound 42, 5-(6-aminopyrimidin-4-yl)-2-(2,4-dichlorophenyl)-1H-pyrrole-3-carboxamide]
IC50 (Cdc7): 90 nM | HLC % remaining (1 h incub.) [1]: 100% | IntCl (Intrinsic Clearance) [1]: 2.9 μL/min/mg protein | HLC T½ min [1]: 3.98 h

NC(=O)c1cc(-c2cn[nH]c2)[nH]c1-c1ccc(Cl)cc1Cl [compound 43, 2-(2,4-dichlorophenyl)-5-(1H-pyrazol-4-yl)-1H-pyrrole-3-carboxamide]
IC50 (Cdc7): 13 nM | HLC % remaining (1 h incub.) [1]: 100% | IntCl (Intrinsic Clearance) [1]: 2.9 μL/min/mg protein | HLC T½ min [1]: 3.98 h

Cc1n[nH]cc1-c1cc(C(N)=O)c(-c2ccc(Cl)cc2Cl)[nH]1 [compound 44, 2-(2,4-dichlorophenyl)-5-(3-methyl-1H-pyrazol-4-yl)-1H-pyrrole-3-carboxamide]
IC50 (Cdc7): 48 nM | HLC % remaining (1 h incub.) [1]: 100% | IntCl (Intrinsic Clearance) [1]: 2.9 μL/min/mg protein | HLC T½ min [1]: 3.98 h

NC(=O)c1cc(-c2ccnc3[nH]ccc23)n(CCC(F)(F)F)c1-c1ccc(Cl)cc1Cl [compound 55, 2-(2,4-dichlorophenyl)-5-(1H-pyrrolo[2,3-b]pyridin-4-yl)-1-(3,3,3-trifluoropropyl)-1H-pyrrole-3-carboxamide]
IC50 (Cdc7): 996 nM

Cn1c(-c2ccnc3[nH]ccc23)cc(C(N)=O)c1-c1ccc(Cl)cc1Cl [compound 56, 2-(2,4-dichlorophenyl)-1-methyl-5-(1H-pyrrolo[2,3-b]pyridin-4-yl)-1H-pyrrole-3-carboxamide]
IC50 (Cdc7): 14 nM

CCn1c(-c2ccnc3[nH]ccc23)cc(C(N)=O)c1-c1ccc(Cl)cc1Cl [compound 57, 2-(2,4-dichlorophenyl)-1-ethyl-5-(1H-pyrrolo[2,3-b]pyridin-4-yl)-1H-pyrrole-3-carboxamide]
IC50 (Cdc7): 17 nM
